Activity calls are given as the source filed them.
Tests used:
[1] = Luminescence Cell-Based Dose Confirmation HTS to Identify Activators of 5'UTR Stem-Loop Driven Alpha-Synuclein mRNA Translation in H4 Neuroglioblastoma Cells. [Related pubchem assays: 1829 (Project Summary), 1814 (Primary HTS)]; format: functional
[2] = Luminescence Cell-Based Dose Response HTS to Identify Activators of Luciferase Translation or Activity in H4 […] Cells. [Related pubchem assays: 1829 (Project Summary), 1814 (Primary HTS)]; format: functional
H4 = assay: Luminescence Cell-Based Dose Response HTS to Identify Activators of 5'UTR Stem-Loop Driven Prion Protein mRNA Translation in H4 Neuroglioblastoma Cells. [Related pubchem assays: 1829 (Project Summary), 1814 (Primary HTS)]; format: functional; conditions: Homo sapiens
[3] = target: Luciferin 4-monooxygenase (Photinus pyralis, UniProt P08659); assay: firefly luciferase enzyme inhibitors, dose response, biochemical, luminescence (AID 1891)
[4] = Luminescence Cell-Based Dose Confirmation HTS to Identify Inhibitors of Platelet Dense Granule Release. [Related pubchem assays: 1663 (Primary HTS), 1678 (Summary of Project)]; format: functional
HeLa = assay: HeLa cell cytotoxicity, dose response, cytotoxicity control for MITF activator project, CellTiter-Glo luminescence, cherry-pick samples (AID 540259); format: functional, cell-based; conditions: Homo sapiens
Beta-galactosidase = Beta-galactosidase (Escherichia coli, UniProt Q8VNN2); assay: PubChem AID 485352; format: functional
[5] = target: T1, Type-1 angiotensin II receptor (Homo sapiens, UniProt P30556); assay: AT1 receptor antagonists, dose response, selectivity assay for APJ receptor antagonist project, cell-based, uHTS hits (AID 463214); format: functional;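 note: antagonist potency against angiotensin II stimulated AT1 response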
T1 sequence (P30556 whole entry): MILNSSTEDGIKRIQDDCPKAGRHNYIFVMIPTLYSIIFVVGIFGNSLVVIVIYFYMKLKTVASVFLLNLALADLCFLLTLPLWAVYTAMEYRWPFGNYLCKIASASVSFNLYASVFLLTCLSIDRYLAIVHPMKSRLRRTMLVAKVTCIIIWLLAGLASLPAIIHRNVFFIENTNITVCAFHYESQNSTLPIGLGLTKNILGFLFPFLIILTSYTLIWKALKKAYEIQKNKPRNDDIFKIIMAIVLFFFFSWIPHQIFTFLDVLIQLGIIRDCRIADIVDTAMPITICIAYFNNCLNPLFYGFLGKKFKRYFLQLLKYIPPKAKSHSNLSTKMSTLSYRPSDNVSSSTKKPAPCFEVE

CHO = assay: cytotoxicity in TLR9-MyD88 CHO cells, dose response, cytotoxicity control for TLR9-MyD88 binding inhibitor project, cell-based, luminescence (AID 588339); format: functional, hamster; conditions: Cricetulus griseus;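 note: CHO cells stably coexpressing TLR9 and MyD88 fusions from primary screen; compound exposure lasted 48 hours before viability readout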
INS1 = assay: beta cell apoptosis inhibitors, cytokine rescue, dose response, luminescence, retest (AID 449756); format: functional, cell-based; conditions: Rattus norvegicus;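 note: cell death triggered by IL-1 beta plus TNF-alpha plus IFN-gamma mixture; protective hits raise ATP signal compared with cytokine alone wells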
[6] = Shn3 3'UTR reporter inhibitors, dose response, cell-based, Clone20 osteoblasts, firefly luciferase, cherry-picked (AID 624132); format: functional;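 note: firefly luciferase luminescence from reporter carrying the Shn3 3'UTR in osteoblasts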
[7] = HepG2 cell cytotoxicity, dose response, cytotoxicity control for Shn3 inhibitor project, CellTiter-Glo, cherry-picked (AID 624134); format: functional, cell-based
[8] = control 3'UTR Renilla luciferase suppression, dose response, counter-screen for Shn3 inhibitor project, cell-based, Clone20-Shn3RL, cherry-picked (AID 624133); format: functional
Fatty acid synthase [9] = target: T2, Fatty acid synthase (Homo sapiens, UniProt P49327); assay: FAS thioesterase domain inhibitors, dose response, biochemical, endpoint fluorescence intensity, uHTS hits (AID 624327); format: functional;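 note: fluorescence from hydrolysis of an O-methyl fluorescein acyl ester substrate by the enzyme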
Fatty acid synthase [10] = target: T2, Fatty acid synthase; assay: FAS thioesterase domain inhibitors, dose response, biochemical, kinetic fluorescence intensity (AID 624326); format: functional;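 note: rate of fluorescence rise from hydrolysis of a fluorogenic O-methyl fluorescein ester substrate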
[11] = target: T3, Carboxy-terminal domain RNA polymerase II polypeptide A small phosphatase 1 (Homo sapiens, UniProt Q9GZU7); assay: inhibitors of CTDSP1, concentration-response testing, biochemical assay, absorbance-based, actives from ultra-high-throughput screening (AID 540297); format: functional
T3 sequence (Q9GZU7 whole entry): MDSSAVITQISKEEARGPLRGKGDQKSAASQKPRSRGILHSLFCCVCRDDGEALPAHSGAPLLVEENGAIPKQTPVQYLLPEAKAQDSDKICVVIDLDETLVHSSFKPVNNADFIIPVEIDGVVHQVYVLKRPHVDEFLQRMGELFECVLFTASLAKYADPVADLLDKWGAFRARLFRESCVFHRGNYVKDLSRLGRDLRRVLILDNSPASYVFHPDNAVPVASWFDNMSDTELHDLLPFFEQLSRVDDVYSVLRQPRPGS

[12] = target: T4, Apoptotic protease-activating factor 1 (Homo sapiens, UniProt O14727); format: functional
T4 sequence (O14727 whole entry): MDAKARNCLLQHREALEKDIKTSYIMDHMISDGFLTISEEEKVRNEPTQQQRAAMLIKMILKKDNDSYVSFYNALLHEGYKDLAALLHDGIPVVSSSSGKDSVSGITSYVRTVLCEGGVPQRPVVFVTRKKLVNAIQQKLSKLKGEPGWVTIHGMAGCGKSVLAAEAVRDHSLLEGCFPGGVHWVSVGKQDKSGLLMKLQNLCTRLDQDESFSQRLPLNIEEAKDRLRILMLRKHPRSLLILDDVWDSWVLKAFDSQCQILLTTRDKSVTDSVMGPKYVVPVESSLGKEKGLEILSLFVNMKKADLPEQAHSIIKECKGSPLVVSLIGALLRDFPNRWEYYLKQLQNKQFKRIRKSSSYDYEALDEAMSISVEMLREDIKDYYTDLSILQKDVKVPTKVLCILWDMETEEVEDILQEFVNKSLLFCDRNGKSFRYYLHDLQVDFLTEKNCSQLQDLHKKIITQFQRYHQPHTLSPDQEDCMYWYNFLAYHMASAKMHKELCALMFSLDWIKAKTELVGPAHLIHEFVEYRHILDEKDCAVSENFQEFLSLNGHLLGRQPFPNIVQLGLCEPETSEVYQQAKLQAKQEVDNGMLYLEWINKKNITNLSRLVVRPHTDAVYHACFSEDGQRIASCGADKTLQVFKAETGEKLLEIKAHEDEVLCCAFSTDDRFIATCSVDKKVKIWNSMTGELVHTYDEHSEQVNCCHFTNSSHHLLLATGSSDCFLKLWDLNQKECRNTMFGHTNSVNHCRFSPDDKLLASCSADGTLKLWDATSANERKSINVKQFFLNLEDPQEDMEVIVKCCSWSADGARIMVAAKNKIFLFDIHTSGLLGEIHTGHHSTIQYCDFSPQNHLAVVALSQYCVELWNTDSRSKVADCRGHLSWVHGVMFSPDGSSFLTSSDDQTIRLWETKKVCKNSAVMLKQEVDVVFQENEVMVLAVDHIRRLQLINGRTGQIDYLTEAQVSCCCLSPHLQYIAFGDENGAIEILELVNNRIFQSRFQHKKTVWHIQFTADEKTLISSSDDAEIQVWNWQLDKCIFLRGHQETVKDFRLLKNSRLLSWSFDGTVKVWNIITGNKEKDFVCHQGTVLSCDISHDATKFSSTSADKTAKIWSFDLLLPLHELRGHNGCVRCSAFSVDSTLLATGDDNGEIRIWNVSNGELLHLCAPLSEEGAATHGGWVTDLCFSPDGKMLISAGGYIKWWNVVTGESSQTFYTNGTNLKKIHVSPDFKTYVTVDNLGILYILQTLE

[13] = target: T5, Short transient receptor potential channel 4 (Mus musculus, UniProt Q9QUQ5); assay: mouse TRPC4 channel inhibitors, dose response, cell-based, HEK293 TRPC4/mu-opioid, Fluo-4 calcium (AID 434942); format: functional;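 note: potency of inhibitors blocking the TRPC4 calcium response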
T5 sequence (Q9QUQ5 whole entry): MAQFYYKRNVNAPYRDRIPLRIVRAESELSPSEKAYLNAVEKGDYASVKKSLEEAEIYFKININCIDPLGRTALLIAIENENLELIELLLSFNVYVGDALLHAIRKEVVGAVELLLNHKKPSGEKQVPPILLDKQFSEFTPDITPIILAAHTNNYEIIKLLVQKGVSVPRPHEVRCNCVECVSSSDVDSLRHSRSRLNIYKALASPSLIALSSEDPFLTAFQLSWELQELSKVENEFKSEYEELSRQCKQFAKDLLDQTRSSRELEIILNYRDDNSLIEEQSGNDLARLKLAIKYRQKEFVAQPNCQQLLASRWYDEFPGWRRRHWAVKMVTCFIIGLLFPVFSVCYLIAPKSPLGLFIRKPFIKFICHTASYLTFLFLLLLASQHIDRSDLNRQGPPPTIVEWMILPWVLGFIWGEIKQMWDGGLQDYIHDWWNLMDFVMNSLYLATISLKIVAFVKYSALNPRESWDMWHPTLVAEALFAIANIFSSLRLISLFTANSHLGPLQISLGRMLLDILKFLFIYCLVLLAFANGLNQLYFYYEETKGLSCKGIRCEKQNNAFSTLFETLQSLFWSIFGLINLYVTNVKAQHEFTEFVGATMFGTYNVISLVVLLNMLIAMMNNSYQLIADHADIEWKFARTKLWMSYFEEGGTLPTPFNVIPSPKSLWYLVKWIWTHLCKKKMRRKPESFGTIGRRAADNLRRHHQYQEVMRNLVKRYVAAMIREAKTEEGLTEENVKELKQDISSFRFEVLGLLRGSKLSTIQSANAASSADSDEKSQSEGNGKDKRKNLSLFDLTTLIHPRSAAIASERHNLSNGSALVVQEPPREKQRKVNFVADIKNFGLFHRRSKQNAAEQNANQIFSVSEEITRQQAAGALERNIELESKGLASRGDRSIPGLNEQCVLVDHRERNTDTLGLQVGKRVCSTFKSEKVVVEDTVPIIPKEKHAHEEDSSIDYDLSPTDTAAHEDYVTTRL

[14] = target: T5, Short transient receptor potential channel 4; assay: mouse TRPC4 channel activators, dose response, cell-based, HEK293 TRPC4/mu-opioid, Fluo-4 calcium (AID 434937); format: functional
[15] = target: Delta-type opioid receptor (Homo sapiens, UniProt P41143); assay: Counterscreen for agonists of heterodimerization of the mu 1 (OPRM1) and delta 1 (OPRD1) opioid receptors: Luminescence-based cell-based high throughput dose response assay to identify agonists of OPRD1 homodimerization. [Related pubchem assays (depositor defined):AID504326, AID504355, AID504692, AID504904, AID504905]; format: functional
Mu-type opioid receptor = Mu-type opioid receptor (Homo sapiens, UniProt P35372); assay: Counterscreen for agonists of heterodimerization of the mu 1 (OPRM1) and delta 1 (OPRD1) opioid receptors: Luminescence-based cell-based high throughput dose response assay to identify agonists of OPRM1 homodimerization.; format: functional;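 note: U2OS cells expressing OPRM1 and beta-arrestin as split beta-galactosidase partners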
[16] = target: 5-hydroxytryptamine receptor 5A (Homo sapiens, UniProt P47898); assay: Counterscreen for agonists of OPRM1-OPRD1 heterodimerization: luminescence-based cell-based high throughput dose response assay to identify agonists of 5-hydroxytryptamine (serotonin) 5A receptor (HTR5A). [Related pubchem assays (depositor defined):AID504326, AID504355, AID504692, AID504904, AID504905]; format: functional
Sequence of 5-hydroxytryptamine receptor 5A (P47898 whole entry): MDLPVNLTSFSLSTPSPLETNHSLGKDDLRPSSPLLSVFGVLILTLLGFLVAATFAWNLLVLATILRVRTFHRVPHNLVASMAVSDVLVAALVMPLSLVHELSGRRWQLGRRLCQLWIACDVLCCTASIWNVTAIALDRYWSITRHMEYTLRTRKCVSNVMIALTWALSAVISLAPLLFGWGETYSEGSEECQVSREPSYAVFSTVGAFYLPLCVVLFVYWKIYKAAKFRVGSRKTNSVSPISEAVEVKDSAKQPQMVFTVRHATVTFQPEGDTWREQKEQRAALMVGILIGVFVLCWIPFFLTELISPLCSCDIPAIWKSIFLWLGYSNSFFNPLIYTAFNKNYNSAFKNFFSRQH

T2 sequence (P49327 whole entry, the tested form may be a part): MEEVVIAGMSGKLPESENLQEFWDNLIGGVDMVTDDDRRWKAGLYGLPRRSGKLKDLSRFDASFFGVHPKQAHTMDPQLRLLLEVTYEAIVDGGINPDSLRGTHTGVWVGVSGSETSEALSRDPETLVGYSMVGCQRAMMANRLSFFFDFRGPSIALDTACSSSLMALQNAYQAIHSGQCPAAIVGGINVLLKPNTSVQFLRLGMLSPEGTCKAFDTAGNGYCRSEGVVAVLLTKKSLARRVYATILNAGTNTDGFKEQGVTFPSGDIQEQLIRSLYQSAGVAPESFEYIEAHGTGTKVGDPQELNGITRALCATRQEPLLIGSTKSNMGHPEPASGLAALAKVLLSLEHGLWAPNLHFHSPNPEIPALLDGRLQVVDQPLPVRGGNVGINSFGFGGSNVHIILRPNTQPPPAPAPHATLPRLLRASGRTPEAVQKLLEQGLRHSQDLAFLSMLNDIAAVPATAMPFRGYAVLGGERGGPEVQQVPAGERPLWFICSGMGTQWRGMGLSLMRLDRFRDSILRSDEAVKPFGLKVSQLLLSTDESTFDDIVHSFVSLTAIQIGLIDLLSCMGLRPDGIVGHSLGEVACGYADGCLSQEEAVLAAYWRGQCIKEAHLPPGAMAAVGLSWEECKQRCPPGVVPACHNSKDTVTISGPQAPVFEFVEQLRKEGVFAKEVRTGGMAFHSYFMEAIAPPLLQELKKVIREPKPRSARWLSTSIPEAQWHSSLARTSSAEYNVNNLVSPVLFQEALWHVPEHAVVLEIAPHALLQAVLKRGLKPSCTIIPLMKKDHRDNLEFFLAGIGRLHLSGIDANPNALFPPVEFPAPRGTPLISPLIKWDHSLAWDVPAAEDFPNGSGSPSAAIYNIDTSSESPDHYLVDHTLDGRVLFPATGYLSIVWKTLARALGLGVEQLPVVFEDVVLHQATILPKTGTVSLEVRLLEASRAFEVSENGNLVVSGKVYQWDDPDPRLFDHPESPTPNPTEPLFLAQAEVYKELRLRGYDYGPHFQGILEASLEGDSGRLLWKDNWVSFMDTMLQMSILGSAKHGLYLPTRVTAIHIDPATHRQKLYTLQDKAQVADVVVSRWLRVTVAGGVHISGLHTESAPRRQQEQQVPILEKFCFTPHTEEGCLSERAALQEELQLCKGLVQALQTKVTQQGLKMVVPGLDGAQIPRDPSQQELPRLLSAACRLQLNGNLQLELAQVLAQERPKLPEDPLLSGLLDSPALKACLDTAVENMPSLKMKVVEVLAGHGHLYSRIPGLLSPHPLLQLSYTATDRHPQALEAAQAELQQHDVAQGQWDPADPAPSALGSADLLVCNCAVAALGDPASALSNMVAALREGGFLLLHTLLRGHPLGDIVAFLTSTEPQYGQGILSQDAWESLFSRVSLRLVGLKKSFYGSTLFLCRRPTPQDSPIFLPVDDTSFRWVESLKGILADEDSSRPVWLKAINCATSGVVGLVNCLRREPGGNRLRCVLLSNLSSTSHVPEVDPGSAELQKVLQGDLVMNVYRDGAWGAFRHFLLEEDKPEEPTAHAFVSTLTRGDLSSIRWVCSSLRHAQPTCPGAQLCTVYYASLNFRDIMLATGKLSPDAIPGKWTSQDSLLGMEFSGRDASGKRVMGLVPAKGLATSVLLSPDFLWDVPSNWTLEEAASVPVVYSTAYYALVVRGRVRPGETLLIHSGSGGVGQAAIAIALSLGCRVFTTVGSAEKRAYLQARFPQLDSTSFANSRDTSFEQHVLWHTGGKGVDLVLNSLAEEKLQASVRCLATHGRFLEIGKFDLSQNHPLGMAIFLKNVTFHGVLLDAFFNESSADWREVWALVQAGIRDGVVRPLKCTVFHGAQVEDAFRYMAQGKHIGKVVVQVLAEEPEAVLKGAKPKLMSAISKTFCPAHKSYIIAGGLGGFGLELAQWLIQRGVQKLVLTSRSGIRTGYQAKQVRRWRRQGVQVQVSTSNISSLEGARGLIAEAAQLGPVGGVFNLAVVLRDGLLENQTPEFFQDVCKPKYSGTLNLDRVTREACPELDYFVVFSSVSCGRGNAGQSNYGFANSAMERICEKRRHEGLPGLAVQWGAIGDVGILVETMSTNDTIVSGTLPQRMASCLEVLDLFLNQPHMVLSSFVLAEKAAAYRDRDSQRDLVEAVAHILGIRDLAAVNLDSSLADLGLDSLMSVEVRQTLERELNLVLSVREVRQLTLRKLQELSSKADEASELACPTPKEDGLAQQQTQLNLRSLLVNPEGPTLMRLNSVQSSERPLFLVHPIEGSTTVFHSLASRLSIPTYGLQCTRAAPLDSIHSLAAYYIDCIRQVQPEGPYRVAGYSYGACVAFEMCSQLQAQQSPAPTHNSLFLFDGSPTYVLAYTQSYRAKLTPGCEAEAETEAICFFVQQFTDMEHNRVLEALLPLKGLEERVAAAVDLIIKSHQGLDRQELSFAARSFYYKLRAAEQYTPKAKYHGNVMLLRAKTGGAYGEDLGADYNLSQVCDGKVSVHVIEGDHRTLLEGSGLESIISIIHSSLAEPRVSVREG
Sequence of Beta-galactosidase (Q8VNN2 whole entry): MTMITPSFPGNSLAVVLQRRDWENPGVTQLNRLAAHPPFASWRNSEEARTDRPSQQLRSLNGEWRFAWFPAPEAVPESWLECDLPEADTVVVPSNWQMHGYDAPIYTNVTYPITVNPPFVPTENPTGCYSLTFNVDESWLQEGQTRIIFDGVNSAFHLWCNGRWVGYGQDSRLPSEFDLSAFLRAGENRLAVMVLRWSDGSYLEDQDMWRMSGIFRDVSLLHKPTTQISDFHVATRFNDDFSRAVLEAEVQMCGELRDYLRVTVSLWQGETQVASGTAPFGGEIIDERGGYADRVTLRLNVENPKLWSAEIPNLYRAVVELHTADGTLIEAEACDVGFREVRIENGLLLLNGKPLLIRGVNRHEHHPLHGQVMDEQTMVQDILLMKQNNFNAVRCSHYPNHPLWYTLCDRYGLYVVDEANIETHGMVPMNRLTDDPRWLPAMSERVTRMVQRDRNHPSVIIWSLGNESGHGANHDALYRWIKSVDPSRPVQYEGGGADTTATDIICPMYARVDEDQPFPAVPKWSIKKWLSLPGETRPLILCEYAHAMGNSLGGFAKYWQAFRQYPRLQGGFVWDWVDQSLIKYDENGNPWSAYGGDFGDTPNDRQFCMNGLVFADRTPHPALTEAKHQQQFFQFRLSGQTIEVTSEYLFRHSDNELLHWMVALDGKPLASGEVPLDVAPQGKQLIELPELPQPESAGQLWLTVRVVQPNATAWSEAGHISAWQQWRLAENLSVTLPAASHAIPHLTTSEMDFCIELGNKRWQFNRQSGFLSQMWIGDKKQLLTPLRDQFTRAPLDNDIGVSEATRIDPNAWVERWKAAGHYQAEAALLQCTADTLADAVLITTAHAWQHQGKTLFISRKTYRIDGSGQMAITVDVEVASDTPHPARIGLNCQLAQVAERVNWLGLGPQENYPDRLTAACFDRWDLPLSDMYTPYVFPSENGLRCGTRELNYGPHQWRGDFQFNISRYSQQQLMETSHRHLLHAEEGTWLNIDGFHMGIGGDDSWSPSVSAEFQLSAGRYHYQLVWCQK
Sequence of Delta-type opioid receptor (P41143 whole entry): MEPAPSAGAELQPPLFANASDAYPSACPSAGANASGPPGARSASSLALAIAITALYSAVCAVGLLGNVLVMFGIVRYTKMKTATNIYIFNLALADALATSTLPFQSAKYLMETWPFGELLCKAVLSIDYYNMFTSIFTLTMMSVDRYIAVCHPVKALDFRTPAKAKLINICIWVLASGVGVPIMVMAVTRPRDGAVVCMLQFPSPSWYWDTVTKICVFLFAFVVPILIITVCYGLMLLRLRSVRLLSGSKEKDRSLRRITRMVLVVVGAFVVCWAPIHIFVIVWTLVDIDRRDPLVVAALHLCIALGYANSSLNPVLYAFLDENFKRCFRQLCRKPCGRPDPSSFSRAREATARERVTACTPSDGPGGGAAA
Sequence of Mu-type opioid receptor (P35372 whole entry): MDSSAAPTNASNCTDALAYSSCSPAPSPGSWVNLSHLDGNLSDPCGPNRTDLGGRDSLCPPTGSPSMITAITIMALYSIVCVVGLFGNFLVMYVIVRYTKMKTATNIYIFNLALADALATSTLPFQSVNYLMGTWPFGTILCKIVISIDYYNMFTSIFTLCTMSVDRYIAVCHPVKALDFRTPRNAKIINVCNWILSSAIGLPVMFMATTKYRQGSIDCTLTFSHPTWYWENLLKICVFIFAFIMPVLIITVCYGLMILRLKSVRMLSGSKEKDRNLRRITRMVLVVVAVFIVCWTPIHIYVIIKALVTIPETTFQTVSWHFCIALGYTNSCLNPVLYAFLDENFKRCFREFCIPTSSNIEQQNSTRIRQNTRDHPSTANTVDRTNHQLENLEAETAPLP

With `c1ccc(C2=NN(c3ccccc3)CC2)cc1` the EC50 [1] was 0.11 µM (active), the EC50 [2] was 0.187 µM (active) and the EC50 (H4) was > 120 µM (not active). The EC50 [3] was > 112 µM (not active), the EC50 [4] was > 112 µM (not active) and the AC50 (HeLa) was 85.4 µM (active).

In the case of `CN(c1ccccc1)S(=O)(=O)c1ccc(NC(=O)c2nc(S(C)(=O)=O)ncc2Cl)cc1`, the EC50 (Beta-galactosidase) was > 40 µM (inactive), the IC50 [5] was 3.14 µM (active) and the IC50 (CHO) was 2.03 µM (active). The AC50 (INS1) was 5.65 µM (active), the AC50 [6] was 0.502 µM (active) and the AC50 [7] was 10.5 µM (active). For the same compound, the AC50 [8] was 2.77 µM (active), the IC50 (Fatty acid synthase [9]) was 5.88 µM (active) and the IC50 (Fatty acid synthase [10]) was 5.01 µM (active).

With `CCCn1ncc2c(Nc3ccc(C)c(C)c3)ncnc21` the AC50 (HeLa) was 39.8 µM (active).

With `Nn1c(SCC(=O)NC(=O)NCc2ccco2)nnc1-c1ccc(OC(F)F)cc1` the IC50 [11] was 3.75 µM (active).

For `CCc1ccc(NC(=O)c2cc(-c3cccs3)on2)cc1`, the AC50 (HeLa) was 160 µM (active).

For `CC(C)CC[n+]1ccn(C2=C([N-]S(=O)(=O)c3ccccc3)C(=O)c3ccccc3C2=O)c1`, the IC50 [12] was 12.9 µM (active).

In the case of `Cc1ccc(C2(O)C[N+](c3ccccc3)=C3SCCN32)cc1` (centres undefined), the EC50 [13] was 0.237 µM (active), the EC50 [14] was 0.596 µM (active) and the EC50 [15] was > 92.5 µM (inactive). The EC50 (Mu-type opioid receptor) was 48.2 µM (inactive) and the EC50 [16] was > 92.5 µM (inactive).

In the case of `Cc1ccc(Cl)cc1N1CCN(C(=O)CN(c2ccccc2)S(=O)(=O)N(C)C)CC1`, the IC50 [11] was 5.49 µM (active).

With `Oc1ccc(Br)cc1/C=N/N1CCCCC1` the EC50 [1] was 4.76 µM (active), the EC50 [2] was > 120 µM (not active) and the EC50 (H4) was > 120 µM (not active). For the same compound, the AC50 (HeLa) was 41.4 µM (active).
